Source: article PMC12169615, “Fluorescent 4‑Nitrobenzo-2-oxa-1,3-diazole-Coupled Bile Acids as Probe Substrates of Hepatic and Intestinal Bile Acid Transporters of the Solute Carrier Families SLC10 and SLCO” (Journal of Medicinal Chemistry, 2025)
Values joined by “and” are separate entries in the source; they are usually repeats but may differ in a detail not shown here. Identical values can stand only once.

Key:
mouse mAsbt = target: T1, mouse mAsbt (Mus musculus, UniProt P70172); test: Transport kinetics of conjugated 3-NBD-BA (concentration-dependent uptake); assay type: cell-based; design: stably transfected with the full open reading frames of human NTCP, ASBT, SOAT, OATP1B1, and OATP1B3 as well as mouse mNtcp and mAsbt; expressed in transfected cells; details: mAsbt-HEK293, 10 min uptake, 37 °C, specific (Na+-dependent) uptake
T1 sequence (P70172 1-348): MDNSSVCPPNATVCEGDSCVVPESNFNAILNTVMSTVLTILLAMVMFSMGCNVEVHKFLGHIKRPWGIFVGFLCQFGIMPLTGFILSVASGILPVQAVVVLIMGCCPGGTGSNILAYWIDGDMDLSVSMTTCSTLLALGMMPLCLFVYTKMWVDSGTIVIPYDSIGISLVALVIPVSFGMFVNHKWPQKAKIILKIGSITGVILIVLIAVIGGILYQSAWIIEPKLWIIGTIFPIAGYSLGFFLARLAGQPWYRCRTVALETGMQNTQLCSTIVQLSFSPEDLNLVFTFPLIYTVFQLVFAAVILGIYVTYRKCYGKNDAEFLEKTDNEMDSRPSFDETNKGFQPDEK
Procedure: In a first step, the time-dependent transport of all conjugated NBD-BA was analyzed. […] Based on these findings, an uptake phase of 10 min was selected as the most practical for subsequent kinetic transport measurements. […] In contrast, for ASBT, reliable carrier-specific concentration-dependent transport rates and K m values could only be determined for 3α-NBD-GCA (16d). The transport rates for 3β-NBD-TCA (14a), 3β-NBD-TCDCA (14b), 3β-NBD-GCA (16a), and 3α-NBD-TCA (14d) were at ≤ 2 across the entire concentration range and were therefore not considered biologically meaningful.
7 ASBT and mAsbt transport kinetics for conjugated 3-NBD-BA. Concentration-dependent uptake of the indicated NBD-coupled BA was analyzed in HEK293 cells stably expressing human ASBT or mouse mAsbt at increasing substrate concentrations. Control experiments were performed in the absence of sodium (-Na^+). Uptake was analyzed for 10 min at 37 °C with transport buffer containing the indicated 3-NBD-BA. Afterward, the transport medium was removed, and each cell monolayer was washed and processed for fluorescence detection. Specific uptake was calculated by subtracting the nonspecific uptake in the absence of sodium (-Na^+, open symbols) from the uptake in the presence of sodium (+Na^+, closed symbols) and is shown by dotted lines. Values represent means ± SD of quadruplicate determinations. Michaelis Menten K m values were calculated by nonlinear regression analysis based on the specific uptake data. For ASBT, reliable specific uptake data could only be determined for 3α-NBD-GCA (16d).

mouse mNtcp = target: T2, mouse mNtcp (Mus musculus, UniProt O08705); test: Fluorescence microscopy screening of cellular uptake of 3-NBD-BA; assay type: cell-based; details: 50 μM, 10 min, +Na+ vs -Na+
T2 construct: stably transfected with the full open reading frames of human NTCP, ASBT, SOAT, OATP1B1, and OATP1B3 as well as mouse mNtcp and mAsbt; expressed in transfected cells
T2 sequence (O08705 1-362): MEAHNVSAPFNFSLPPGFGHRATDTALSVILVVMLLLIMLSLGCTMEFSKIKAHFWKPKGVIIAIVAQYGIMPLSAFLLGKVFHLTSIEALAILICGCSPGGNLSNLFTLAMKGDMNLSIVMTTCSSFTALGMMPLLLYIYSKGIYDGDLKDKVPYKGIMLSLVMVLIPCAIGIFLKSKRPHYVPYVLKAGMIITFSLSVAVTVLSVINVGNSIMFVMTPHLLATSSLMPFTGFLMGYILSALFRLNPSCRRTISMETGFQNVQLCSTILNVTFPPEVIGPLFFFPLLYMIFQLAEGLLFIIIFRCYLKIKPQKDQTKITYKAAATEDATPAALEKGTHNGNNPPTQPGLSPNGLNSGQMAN
Procedure: (§1) Then, all cell lines were cultivated in chamber slides and were grown to confluence to screen for carrier-mediated cellular accumulation of the synthesized NBD-BA. Incubation with the NBD-BA was done in the presence of sodium (+Na^+) as well as in the absence of sodium (-Na^+, negative control) for all SLC10 carriers, namely NTCP, ASBT, mNtcp, mAsbt, and SOAT. For OATP1B1 and OATP1B3, nontransfected HEK293 cells were used as negative control.
(§2) 4 Screening of the cellular uptake of 3-NBD-BA in HEK293 (HEK) cells stably expressing the human carriers NTCP, ASBT, SOAT, OATP1B1, and OATP1B3, or the mouse carriers mNtcp and mAsbt. For the SLC10 carriers, sodium-free conditions (-Na^+) were used as control. For the OATPs, experiments in non-carrier-expressing HEK293 cells (HEK) served as control. All cell lines were incubated for 10 min with the indicated 3-NBD-BA at 50 μM concentration. Then, cells were washed with PBS and subjected to fluorescence microscopy. Identical microscope settings were used for all images. Scale bar: 75 μm.

human NTCP = target: T3, human NTCP (Homo sapiens, UniProt Q14973); test: as above; assay type: cell-based; details: 50 μM, 10 min, +Na+ vs -Na+
T3 construct: HEK293 cell lines stably transfected with the full open reading frames of human NTCP; expressed in transfected cells
T3 sequence (Q14973 1-349): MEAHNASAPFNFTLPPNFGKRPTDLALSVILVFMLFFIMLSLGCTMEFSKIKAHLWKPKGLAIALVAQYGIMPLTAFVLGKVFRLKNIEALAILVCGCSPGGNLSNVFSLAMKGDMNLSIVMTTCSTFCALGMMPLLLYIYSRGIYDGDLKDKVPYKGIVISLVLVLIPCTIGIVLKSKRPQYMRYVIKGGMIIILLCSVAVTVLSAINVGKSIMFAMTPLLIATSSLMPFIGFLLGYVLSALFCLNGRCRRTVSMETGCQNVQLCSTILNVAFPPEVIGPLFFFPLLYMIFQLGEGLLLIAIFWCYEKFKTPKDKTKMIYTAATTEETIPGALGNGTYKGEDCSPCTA
Procedure: as §1, §2

HEK293 cells = test: Fluorescence microscopy screening: accumulation independent from control conditions; assay type: cell-based, human; details: 50 μM, 10 min, all HEK293 cell lines, with and without sodium
Procedure: as §1, §2

Compound | K m mAsbt (mouse mAsbt) | Cellular NBD-fluorescence, mNtcp-HEK293 (microscopy) (mouse mNtcp) | Cellular NBD-fluorescence, NTCP-HEK293 (microscopy) (human NTCP) | Cellular NBD-fluorescence irrespective of carrier/control conditions (microscopy) (HEK293 cells)
C[C@H](CCC(=O)NCC(=O)O)[C@H]1CC[C@H]2[C@@H]3[C@H](O)C[C@@H]4C[C@@H](Nc5ccc([N+](=O)[O-])c6nonc56)CC[C@]4(C)[C@H]3C[C@H](O)[C@]12C [16a] | 3.5 µM | significant increase in cellular NBD-fluorescence compared to the negative control | significant increase in cellular NBD-fluorescence compared to the negative control | –
12α-Hydroxy-3β-[(7-nitro-2,1,3-benzoxadiazol-4-yl)amino]-5β-cholan-24-oate [6c] | – | – | – | significant increase in cellular NBD-fluorescence, independent from the control conditions
C[C@H](CCC(=O)NCC(=O)O)[C@H]1CC[C@H]2[C@@H]3[C@H](O)C[C@@H]4C[C@H](Nc5ccc([N+](=O)[O-])c6nonc56)CC[C@]4(C)[C@H]3C[C@H](O)[C@]12C [16d] | 14.5 µM | significant increase in cellular NBD-fluorescence compared to the negative control | significant increase in cellular NBD-fluorescence compared to the negative control | –
C[C@H](CCC(=O)NCCS(=O)(=O)[O-])[C@H]1CC[C@H]2[C@@H]3[C@H](O)C[C@@H]4C[C@H](Nc5ccc([N+](=O)[O-])c6nonc56)CC[C@]4(C)[C@H]3C[C@H](O)[C@]12C.[Na+] [14d] | 11.1 µM | significant increase in cellular NBD-fluorescence compared to the negative control | significant increase in cellular NBD-fluorescence compared to the negative control | –
7α-Hydroxy-3β-[(7-nitro-2,1,3-benzoxadiazol-4-yl)amino]-5β-cholan-24-oate [6b] | – | – | – | significant increase in cellular NBD-fluorescence, independent from the control conditions
C[C@H](CCC(=O)O)[C@H]1CC[C@H]2[C@@H]3[C@H](O)C[C@@H]4C[C@H](Nc5ccc([N+](=O)[O-])c6nonc56)CC[C@]4(C)[C@H]3C[C@H](O)[C@]12C [6d, 7α,12α-Dihydroxy-3α-[(7-nitro-2,1,3-benzoxadiazol-4-yl)amino]-5β-cholan-24-oate] | – | – | – | significant increase in cellular NBD-fluorescence, independent from the control conditions
C[C@H](CCC(=O)O)[C@H]1CC[C@H]2[C@@H]3[C@H](O)C[C@@H]4C[C@@H](Nc5ccc([N+](=O)[O-])c6nonc56)CC[C@]4(C)[C@H]3C[C@H](O)[C@]12C [6a, 7α,12α-Dihydroxy-3β-[(7-nitro-2,1,3-benzoxadiazol-4-yl)amino]-5β-cholan-24-oate] | – | – | – | significant increase in cellular NBD-fluorescence, independent from the control conditions
C[C@H](CCC(=O)NCCS(=O)(=O)[O-])[C@H]1CC[C@H]2[C@@H]3[C@H](O)C[C@@H]4C[C@@H](Nc5ccc([N+](=O)[O-])c6nonc56)CC[C@]4(C)[C@H]3C[C@H](O)[C@]12C.[Na+] [14a] | 20.0 µM and 20 µM | significant increase in cellular NBD-fluorescence compared to the negative control | significant increase in cellular NBD-fluorescence compared to the negative control | –
